Test results reported in US9422308B2, “Derivatives of docosahexaenoylethanolamide and uses thereof” (The United States of America, as represented by the …, priority 2012, dated 2016).

How the values were obtained:
neural stem cells = assay: neuronal and glial differentiation of neural stem cells (MAP2/GFAP immunofluorescence); assay type: cell-based, rats; details: 7 days, differentiating NSCs
Experimental: Fetal neural stem cell culture: Neural stern cells (NSCs) were cultured by the neurosphere method (Rietze R. L., Reynolds B. A. (2006) Neural stem cell isolation and characterization. Methods Enzymol. 419, 3-23, the method incorporated by reference herein) with slight modification. Forebrain cortices of rats were isolated on embryonic day 14.5 and 12.5, respectively. The cortices were mechanically disrupted into single cells by repeated pipetting in a serum-free conditioned medium (N2 medium) containing DMEM/F12 (1:1), 0.6% (wt/vol) glucose, 0.1125% (wt/vol) sodium bicarbonate, 2 mM L-glutamine, 5 mM HEPES, 100 μg/mL human apo-transferrin, 20 nM progesterone, 30 nM sodium selenite, 60 μM putrescine, and 25 μg/mL insulin. The dissociated cells were cultured in 6 cm dishes at a density of 1×10^5 cells/mL in N2 medium with 20 ng/mL bFGF and 2 μg/mL heparin in a humidified 5% CO2/95% air incubator at 37° C. Within 3-4 days, the cells grew as free-floating neurospheres that were then collected by centrifugation, mechanically dissociated by pipetting, and passaged.
Differentiation of NSCs: After the second passage, nestin- and SOX2-positive NSCs were enriched in the neurosphere with minimal presence of differentiated cells (MAP2, Tuj-1 and GFAP-positive cells). After the second passage neurospheres were mechanically dissociated and 5×10^5 cells/mL were plated onto 15 μg/mL poly-L-ornithine coated 6- or 24-well plates in N2 medium without bFGF and heparin to initiate the differentiation. The cultures were then treated with N2 medium containing A8 in the presence of 40 μM vitamin E for 1-7 days. As the vehicle control, N2 medium containing 40 μM vitamin E was used.
Immunofluorescence staining: For immunofluorescence staining, 2.5×10^5 NSCs were cultured in 0.5 mL media. […] Finally, the cells were mounted with 80% (vol/vol) glycerol, visualized under a fluorescence microscope and the image data were processed using MetaMorph software for quantitative information. The number of MAP2- and GFAP-positive cells were counted from three separate wells with three to six random fields per well. […]

cortical neurons = assay: neurite growth of embryonic mouse neurons (total neurite length/neuron, MAP2 immunostaining); assay type: cell-based
Experimental: To obtain embryonic mouse neurons for analysis, pregnant female mice were killed by cervical dislocation after exposure to CO2 inhalation. Embryonic neurons were prepared from E18 or P0 mouse hippocampi or cortex and cultured as described previously (Calderon and Kim, J. Neurochem., 90(4):979-88 (2004), errata in J Neurochem., September; 90(6):1540 (2004)), with slight modification. Briefly, hippocampi or cotices were dissected and dissociated by a method using either 0.25% trypsin (Gibco Invitrogen Corporation, Grand Island, N.Y.) in Hank's balanced salt solution (HBSS) or papain (20-30 U/mL) in dissociation media containing cysteine at 37° C. for 15 min. After the dissociation solution was aspirated off, cells were washed with same volume of HBSS, suspended in neurobasal medium (Gibco) containing 2% B27 supplement (Gibco), 1% glutamine/glutamax mix (1:4) (Gibco), 100 U/ml penicillin (Gibco) and 100 μg/ml streptomycin (Gibco), and seeded on poly-D-lysine chambered slides (Lab-Tek, Naperville, Ill.) at a density of 30,000 cells/cm^2. On the second day after seeding, the cells were treated with fatty acids, synaptamide or one of Compounds 1-50 for 48 h. Docosahexaenoic acid (DHA) and oleic acid (OA) were complexed with fatty acid-free bovine serum albumin (BSA; Sigma, St Louis, Mo.) in the presence of α-tocopherol (Sigma) under an argon atmosphere and darkness to prevent oxidation of the fatty acids. The mixture was mixed with fresh Neurobasal medium containing B27 supplement, glutamine/glutamax mix and antibiotics. Final concentrations of α-tocopherol and BSA in the culture medium were 40 μM and 0.01%, respectively. Alternatively, DHA, OA, synaptamide, or one of Compounds 1-50 were dissolved in DMSO and applied directly together with α-tocopherol. In such case, the final concentration of DMSO is less than 0.005%. All stock solutions were aliquoted under argon and stored at −70° C.
Cells were fixed with […] (Sigma) in PBS (pH 7.4) for 30 min. After permeabilization with 0.1% Triton X-100 (Sigma), cells were blocked for 1 h at 37° C. with PBS containing 10% goat serum (Gibco), and then incubated with the primary antibody against microtubule-associated protein (MAP2, mouse monoclonal 1:250; Sigma). After washing with PBS, cells were incubated with the corresponding Cy2-, Cy3-conjugated secondary antibody (Jackson Immunoresearch Laboratories Inc., West Grove, Pa.). For the nuclear staining, 0.06% 4,6-Diamidino-2-Phenylindole (Sigma) was used. After immunostaining, images were collected using an inverted motorized 1×81 Olympus (Melville, N.Y.) and the neurite length was analyzed with Metamorph software (Molecular Devices Corporation, Downingtown, Pa.). To minimize bias, neurons were evaluated blindly without the knowledge of sample identity. Four to six fields/well were chosen at random and only non-clustered neurons were evaluated to ensure the precision of the measurements. From each well, over 100 neurons were evaluated at 20× magnification for total neurite length/neuron. The data were obtained from triplicate wells and the experiments were repeated at least three times.
FIG. 2 provides graphical results of the data shown in Table 2, expressed as total neurite length per neuron. FIG. 3 provides graphical results of these experiments for compounds 11-50 (having designations as provided in Table 1, above), expressed as relative neurite length as compared to untreated controls. FIG. 4 provides graphical results of these experiments for compounds 1-10 (having designations as provided in Table 1, above), as applied to hippocampal neurons.
An additional assay was performed in which Compounds (A8), 4(A10), and 7(A9) were applied at varying dosages (from 10^−5 nM to 10 nM; 10^−5 nM, 10^−4 nM, 10^−2 nM, 0.1 nM, 1 nM, and 10 nM) as compared to DHA, synaptamide, and oleic acid. Neurite growth was measured at each dosage. Results of this assay are provided at FIG. 1.

Structure (SMILES): CC/C=C\C/C=C\C/C=C\C/C=C\C/C=C\C/C=C\CCC(=O)NCC(C)(C)O [Compound 1, (4Z,7Z,10Z,13Z,16Z,19Z)—N-(2-hydroxy-2-methylpropyl)docosa-4,7,10,13,16,19-hexaenamide]
- MAP2 positive cells (neural stem cells; 1 nM, control 7.0±0.8, p=0.02): 10.8±1.8%
- differentiation into GFAP positive cells (neural stem cells; 1-100 nM range): not affected
- MAP2 positive cells (maximum effect) (neural stem cells; around 10 nM, p=0.007): 17.2±4.1%
- Neurite Length/Neuron (mean) (cortical neurons; cortical neurons, 10 nM (FIG. 2), 48 h): 41.3 μm
- effect with respect to cortical neurite growth as compared to DHA (cortical neurons; cortical neurons, FIGS. 1, 2): superior effect
- dosage at which activity is exhibited as compared to DHA and synaptamide (cortical neurons; dosages 10^-5 nM to 10 nM, FIG. 1): activity at significantly lower dosages
